Reference: patent publication US6169074A, “Peptide inhibitors of neurotransmitter secretion by neuronal cells” (The Regents of the University of California, priority 1997, dated 2001)

Legend:
[1] = system: catecholamine release from permeabilized bovine chromaffin cells; format: cell-based; details: for IC50: read-out: concentration reaching 50% inhibitory activity (inhibition of Ca2+ dependent secretion); for effect on Ca2+ dependent (Ca2+-triggered) secretion: peptides at 100 μM concentration, FIG. 7A
mouse neuron = test: Mouse neuron inhibition assay (Mehta, et al., 1996); format: cell-based
Protocol: ii. 47% at 2 μM; 87% at 20 μM, as measured in the mouse neuron inhibition assay described in, for example, Mehta, et al., Proc. Natl. Acad. Sci. USA, 93:10471-10476, 1996 (incorporated herein for purposes of reference).

| Substance | IC50 [1] [nM] | effect on Ca2+ dependent (Ca2+-triggered) secretion [1] | other results |
| --- | --- | --- | --- |
| 170-EIDTQNRQIDRIMEKADSNK-189 [ESUP/E20h] | 1800 | – | – |
| 181-IMEKADSNKTRIDEANQRATKMLGSG-206 [ESUP/E26h] | 250 | – | – |
| 187-SNKTRIDEANQRATKMLGSG-206 [ESUP/A20h, 20-mer peptide encompassing the C-terminal region of SNAP-25 (aa 187-206)] | 12000 | – | Inhibitory Activity ([1]; at 100 μM peptide, bovine chromaffin cells): 65%; Inhibitory Activity (mouse neuron; at 2 μM peptide): 47%; Inhibitory Activity (mouse neuron; at 20 μM peptide): 87% |
| MLDEQGEQLER [SNAP-25(49-59), reference compound] | – | did not affect | – |
| TDSSGREMIKANKQLANGTR [ESUP/20Ah^RD, control peptide with the same amino acid composition as ESUP/A20h but in random order, reference compound] | – | no effect | – |
